Data published in patent US8466193B2, “Selective inhibitors of histone deacetylase” (Pharmacyclics, Inc., priority 2008, dated 2013).

What was measured:
[1] = Pharmacokinetic analysis in male rats, oral gavage; type: in vivo; conditions: CD IGS (Sprague-Dawley derived), rat, plasma, orally at 3 mg/kg, compounds administered in combination
Procedure: This study, performed in male rats with test compounds (Compound 303 and Compound 316), was designed to provide preliminary information on their pharmacokinetics. The test compounds were administered in combination by oral gavage.
The specifications for rats used on this study are as follows: • Strain: CD® IGS rats (Sprague-Dawley derived) • Source: Charles River Laboratories • Surgical modification for oral dosing: One portal vein cannula and one jugular vein cannula • Body weight range at dosing 350 to 375 g
The rats were acclimatized to laboratory conditions for at least 24 hours before dosing. The evening before dosing, food was withheld from the rats and was returned immediately following the 3-hour blood collection time point. Water was provided ad libitum. The rats were housed individually in translucent polycarbonate cages.
Test compounds were prepared as 3.0 mg/ml solutions (1% MC/0.4% Cr EL in WFI).
Rats were administered a single dose of test compound in combination by oral gavage. Dose volumes were adjusted based on body weight data collected immediately prior to dosing.
The dose volume was 1 ml/kg and the nominal dosage was 3 mg/kg.
Blood samples were collected at 5 minutes, 20 minutes, 1 hour, 3 hours, 6 hours, 9 hours, and 24 hours post-dosing from orally dosed rats. The samples were collected into plasma separator Microtainer tubes with anticoagulant (lithium heparin). Plasma samples were prepared by centrifugation (5 min at 5000×g), and at least 100 μL were transferred to storage tubes and frozen on dry ice. Samples were maintained at approximately −75 C until prepared for analysis.
Plasma samples were thawed and 75 uL aliquots were transferred to centrifuge tubes to which 10 μL aliquots of internal standard solution (0.5 μg/mL) were added. The samples were not diluted with blank plasma prior to further processing. Soluble proteins were precipitated by the addition of 300 μL of methanol, followed by centrifugation (20 min at 16,000×g). The samples were evaporated to dryness and reconstituted in 100 μL of water containing 0.2% formic acid and 10% methanol. All samples were loaded onto an autosampler maintained at 6° C. and evaluated for concentrations of test compound using LC-MS/MS. lasma concentration data were evaluated using the computer program WinNonlin (Professional Edition, Pharsight Corporation, version 5.01). […]
Pan HDAC inhibitor 3-((dimethylamino)methyl)-N-(2-(4-(hydroxycarbamoyl)phenoxy)ethyl)benzofuran-2-carboxamide was added to the cassette to serve as a standard since the pharmacokinetics of this compound have been determined previously in rats. The UC's determined for rats administered Compound 303 and Compound 316 orally at 3 mg/kg were 1.42, and 5.36 μg·h/mL, respectively. […]

Jurkat cells = test: Cell proliferation assay, growth inhibition by Alamar Blue; type: cell-based; conditions: Homo sapiens, 72 h, Jurkat cells treated with compound for 3 days
Procedure: Cell lines were obtained from DSMZ (Braunschweig, Germany) or ATCC (Manassas, Va.). Cells were grown in RPMI 1640 with 10% fetal bovine serum in a 5% CO2/air incubator at 37° C. Thapsigargin and BAPTA-AM were from Calbiochem (San Diego, Calif.). 3-((dimethylamino)methyl)-N-(2-(4-(hydroxycarbamoyl)phenoxy)ethyl)benzofuran-2-carboxamide is a broad-spectrum HDAC inhibitor which was synthesized as previously described. Other analogs with varying degrees of specificity towards the HDAC isoforms were synthesized as described herein.
Tumor cell lines and human umbilical vein endothelial cells (HUVEC) were cultured for at least two doubling times, and growth was monitored at the end of compound exposure using an Alamar Blue™ (Biosource, Camarillo, Calif.) fluorometric cell proliferation assay as recommended by the manufacturer. Compounds were assayed in triplicate wells in 96-well plates. The concentration required to inhibit cell growth by 50% (GI50) and 95% confidence intervals were estimated from nonlinear regression using a 4-parameter logistic equation. The effect of HDAC8 selective inhibitor compounds on cell proliferation in Jurkat cells was measured. Apoptosis was measured by Annexin-V flow cytommetry. Growth inhibition was measured by Alamar Blue assay. Cells were treated with compound for 3 days.

HDAC2 = HDAC2 (Homo sapiens, UniProt Q92769); test: Histone deacetylase activity, continuous trypsin-coupled assay; type: biochemical; conditions: 15 minutes preincubation; substrate acetyl-Gly-Ala-(N-acetyl-Lys)-AMC
Procedure: (§1) HDAC activity was measured using a continuous trypsin-coupled assay that has been described in detail previously (US 20070281934; Schultz et. al., Biochemistry, 43 (34), 11083-11091, 2004; Kim et al. (2006), Methods Mol. Biol., 325:273-283). For inhibitor characterization, measurements were performed in a reaction volume of 100 μL using 96-well assay plates in a fluorescence plate reader. For each isozyme, the HDAC protein in reaction buffer (50 mM HEPES, 100 mM KCl, 0.001% Tween-20, 5% DMSO, pH 7.4, supplemented with bovine serum albumin at concentrations of 0-0.05%, was mixed with inhibitor at various concentrations and allowed to incubate for 15 minutes. Trypsin was added to a final concentration of 50 nM, and acetyl-Gly-Ala-(N-acetyl-Lys)-AMC was added to a final concentration of 25-100 μM to initiate the reaction. After a 30 minute lag time, the fluorescence was measured over a 30 minute time frame using an excitation wavelength of 355 nm and a detection wavelength of 460 nm. The increase in fluorescence with time was used as the measure of the reaction rate. Inhibition constants Ki(app) were obtained using the program BatchKi (Biokin, Pullman, Wash.).

HDAC8 = molecular target: T1, HDAC8 (Homo sapiens, UniProt Q9BY41); test: as above; type: biochemical; conditions: 15 minutes preincubation; substrate acetyl-Gly-Ala-(N-acetyl-Lys)-AMC
T1 sequence (Q9BY41 1-377): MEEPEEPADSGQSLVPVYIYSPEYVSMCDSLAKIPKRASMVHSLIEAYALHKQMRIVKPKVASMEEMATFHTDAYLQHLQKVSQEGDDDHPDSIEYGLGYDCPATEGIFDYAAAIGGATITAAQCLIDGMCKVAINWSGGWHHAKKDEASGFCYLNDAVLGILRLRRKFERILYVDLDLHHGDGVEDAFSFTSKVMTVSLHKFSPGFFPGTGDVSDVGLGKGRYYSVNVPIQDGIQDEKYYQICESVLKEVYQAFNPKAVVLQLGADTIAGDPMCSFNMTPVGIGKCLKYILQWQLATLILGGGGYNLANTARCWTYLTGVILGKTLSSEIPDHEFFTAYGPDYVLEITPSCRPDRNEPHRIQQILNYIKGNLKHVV
Procedure: as §1

HDAC10 = molecular target: T2, HDAC10 (Homo sapiens, UniProt Q969S8); test: as above; type: biochemical; conditions: 15 minutes preincubation; substrate acetyl-Gly-Ala-(N-acetyl-Lys)-AMC
T2 sequence (Q969S8 1-669): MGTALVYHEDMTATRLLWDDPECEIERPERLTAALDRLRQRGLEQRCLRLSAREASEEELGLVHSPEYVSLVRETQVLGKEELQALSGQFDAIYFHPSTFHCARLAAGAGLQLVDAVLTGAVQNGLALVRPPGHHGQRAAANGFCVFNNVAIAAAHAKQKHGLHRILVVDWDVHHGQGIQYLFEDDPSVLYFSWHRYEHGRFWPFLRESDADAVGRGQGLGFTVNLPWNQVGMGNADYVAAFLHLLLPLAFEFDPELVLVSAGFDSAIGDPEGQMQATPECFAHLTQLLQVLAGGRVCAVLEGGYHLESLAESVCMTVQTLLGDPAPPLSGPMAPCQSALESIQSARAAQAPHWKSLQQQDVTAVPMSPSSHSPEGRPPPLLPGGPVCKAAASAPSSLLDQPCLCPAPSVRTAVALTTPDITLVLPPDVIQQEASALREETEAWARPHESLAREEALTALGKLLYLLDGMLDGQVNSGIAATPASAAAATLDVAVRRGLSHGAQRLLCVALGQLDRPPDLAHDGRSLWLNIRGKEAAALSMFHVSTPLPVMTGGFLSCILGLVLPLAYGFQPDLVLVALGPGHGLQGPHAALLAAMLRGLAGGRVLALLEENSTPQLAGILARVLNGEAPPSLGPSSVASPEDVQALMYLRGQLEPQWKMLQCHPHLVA
Procedure: as §1

HDAC6 = molecular target: T3, HDAC6 (Homo sapiens, UniProt Q9UBN7); test: as above; type: biochemical; conditions: 15 minutes preincubation; substrate acetyl-Gly-Ala-(N-acetyl-Lys)-AMC
T3 sequence (Q9UBN7 1-1215): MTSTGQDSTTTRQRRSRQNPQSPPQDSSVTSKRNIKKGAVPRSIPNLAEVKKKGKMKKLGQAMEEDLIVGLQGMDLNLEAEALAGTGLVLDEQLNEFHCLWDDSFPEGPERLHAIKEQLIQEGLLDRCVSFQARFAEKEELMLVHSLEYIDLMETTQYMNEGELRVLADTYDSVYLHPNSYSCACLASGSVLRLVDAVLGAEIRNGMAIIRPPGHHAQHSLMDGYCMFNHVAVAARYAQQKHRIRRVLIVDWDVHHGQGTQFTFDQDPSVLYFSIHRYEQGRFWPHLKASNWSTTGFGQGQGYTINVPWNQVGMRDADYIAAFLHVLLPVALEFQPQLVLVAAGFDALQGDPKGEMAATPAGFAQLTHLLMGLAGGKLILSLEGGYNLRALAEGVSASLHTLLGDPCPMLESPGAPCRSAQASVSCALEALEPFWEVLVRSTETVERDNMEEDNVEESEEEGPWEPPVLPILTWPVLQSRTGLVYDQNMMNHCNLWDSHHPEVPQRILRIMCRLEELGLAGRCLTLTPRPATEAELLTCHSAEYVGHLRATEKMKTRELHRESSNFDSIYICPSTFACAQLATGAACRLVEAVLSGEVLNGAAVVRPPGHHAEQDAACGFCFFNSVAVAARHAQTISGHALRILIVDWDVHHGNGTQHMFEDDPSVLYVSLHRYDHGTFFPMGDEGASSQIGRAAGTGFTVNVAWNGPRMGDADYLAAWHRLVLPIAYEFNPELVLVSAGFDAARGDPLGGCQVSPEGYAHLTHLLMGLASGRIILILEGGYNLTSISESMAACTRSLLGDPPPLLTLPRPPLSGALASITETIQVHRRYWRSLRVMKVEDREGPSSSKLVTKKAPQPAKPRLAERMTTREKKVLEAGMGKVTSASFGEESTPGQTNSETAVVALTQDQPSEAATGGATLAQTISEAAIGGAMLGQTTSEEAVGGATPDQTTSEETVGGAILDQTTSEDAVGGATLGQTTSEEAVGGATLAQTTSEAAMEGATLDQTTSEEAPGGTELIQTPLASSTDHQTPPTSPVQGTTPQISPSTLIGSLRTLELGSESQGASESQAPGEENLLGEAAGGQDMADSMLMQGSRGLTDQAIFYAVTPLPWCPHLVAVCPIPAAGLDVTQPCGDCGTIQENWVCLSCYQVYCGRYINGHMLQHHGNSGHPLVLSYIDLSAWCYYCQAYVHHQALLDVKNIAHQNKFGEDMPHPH
Procedure: as §1

HDAC1 = HDAC1 (Homo sapiens, UniProt Q13547); test: as above; type: biochemical; conditions: 15 minutes preincubation; substrate acetyl-Gly-Ala-(N-acetyl-Lys)-AMC
Procedure: as §1

HDAC3 = HDAC3 (Homo sapiens, UniProt O15379); test: as above; type: biochemical; conditions: 15 minutes preincubation; substrate acetyl-Gly-Ala-(N-acetyl-Lys)-AMC
Procedure: as §1

Sequence of HDAC2 (Q92769 whole entry, species assumed): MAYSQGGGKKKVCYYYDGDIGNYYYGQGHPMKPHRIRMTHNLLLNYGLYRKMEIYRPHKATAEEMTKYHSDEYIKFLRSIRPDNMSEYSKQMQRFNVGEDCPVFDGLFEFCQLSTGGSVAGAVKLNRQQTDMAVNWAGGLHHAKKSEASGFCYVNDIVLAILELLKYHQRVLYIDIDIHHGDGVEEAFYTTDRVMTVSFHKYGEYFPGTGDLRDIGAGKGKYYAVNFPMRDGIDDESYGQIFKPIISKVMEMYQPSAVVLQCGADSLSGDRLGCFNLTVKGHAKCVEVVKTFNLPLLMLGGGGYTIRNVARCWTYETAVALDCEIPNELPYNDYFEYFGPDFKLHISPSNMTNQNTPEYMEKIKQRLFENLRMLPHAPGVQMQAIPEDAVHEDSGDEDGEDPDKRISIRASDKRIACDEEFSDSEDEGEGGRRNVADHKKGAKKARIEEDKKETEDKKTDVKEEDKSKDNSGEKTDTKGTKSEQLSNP
Sequence of HDAC3 (O15379 whole entry, species assumed): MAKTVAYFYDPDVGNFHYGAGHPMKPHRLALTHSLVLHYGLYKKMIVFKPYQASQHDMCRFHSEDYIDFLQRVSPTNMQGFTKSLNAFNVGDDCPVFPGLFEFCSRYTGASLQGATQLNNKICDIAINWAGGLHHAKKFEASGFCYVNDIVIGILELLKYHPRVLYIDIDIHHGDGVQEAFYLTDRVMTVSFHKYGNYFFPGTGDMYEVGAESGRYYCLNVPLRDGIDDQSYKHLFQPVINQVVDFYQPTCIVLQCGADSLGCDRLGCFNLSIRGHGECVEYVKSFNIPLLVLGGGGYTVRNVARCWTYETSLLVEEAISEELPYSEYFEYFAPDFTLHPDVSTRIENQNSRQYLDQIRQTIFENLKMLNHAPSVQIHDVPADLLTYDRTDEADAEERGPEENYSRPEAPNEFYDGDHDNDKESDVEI
Sequence of HDAC3 (Q9Y618 395-489 partner limits assumed, species assumed): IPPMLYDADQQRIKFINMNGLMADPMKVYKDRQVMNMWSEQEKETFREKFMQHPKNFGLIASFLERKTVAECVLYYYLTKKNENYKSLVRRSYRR
Sequence of HDAC1 (Q13547 whole entry, species assumed): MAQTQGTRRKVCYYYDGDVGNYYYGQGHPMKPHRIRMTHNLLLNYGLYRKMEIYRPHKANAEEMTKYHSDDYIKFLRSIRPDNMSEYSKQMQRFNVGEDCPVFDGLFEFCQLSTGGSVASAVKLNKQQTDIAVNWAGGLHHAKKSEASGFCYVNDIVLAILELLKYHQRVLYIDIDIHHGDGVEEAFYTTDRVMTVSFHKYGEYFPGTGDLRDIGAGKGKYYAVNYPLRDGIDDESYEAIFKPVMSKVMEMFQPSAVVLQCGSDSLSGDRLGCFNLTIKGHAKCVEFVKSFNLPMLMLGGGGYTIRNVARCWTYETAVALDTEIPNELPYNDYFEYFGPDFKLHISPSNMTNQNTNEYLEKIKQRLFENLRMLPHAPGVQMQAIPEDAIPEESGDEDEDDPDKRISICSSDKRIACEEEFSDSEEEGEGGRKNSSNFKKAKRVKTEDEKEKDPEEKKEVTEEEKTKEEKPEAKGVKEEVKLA

Row | SMILES | AUC [1] [ng·h/mL] | Cmax [1] [ng/mL] | GI50 (Jurkat cells) [µM] | IC50 (HDAC2) [µM] | IC50 (HDAC8) [µM] | IC50 (HDAC10) [µM] | IC50 (HDAC6) [µM] | IC50 (HDAC1) [µM] | IC50 (HDAC3) [µM]
1 | O=C(NO)c1ccc2ccn(CCCc3ccccc3)c2c1 [Compound 303, N-hydroxy-1-(3-phenyl-propyl)-1H-indole-6-carboxamide] | 1420 | 310 | 3.5 |  |  |  |  |  | 
2 | CN(C)Cc1cccc(OCCn2ccc3ccc(C(=O)NO)cc32)c1 [Compound 324, N-hydroxy-1-(2-(3-(dimethylaminomethyl)phenoxy)ethyl)-1H-indole-6-carboxamide] |  |  | 7.4 | > 10 | < 1 | > 10 | 1 to 10 | > 10 | > 10
3 | CN(C)Cc1ccc(OCCn2ccc3ccc(C(=O)NO)cc32)cc1 [Compound 325, N-hydroxy-1-(2-(4-(dimethylaminomethyl)phenoxy)ethyl)-1H-indole-6-carboxamide] |  |  | 13.4 | > 10 | < 1 | > 10 | 1 to 10 | > 10 | > 10
4 | O=C(NO)c1ccc2ccn(CCOc3cccc(CN4CCOCC4)c3)c2c1 [Compound 327, N-hydroxy-1-(2-(3-(morpholin-4-ylmethyl)phenoxy)ethyl)-1H-indole-6-carboxamide] |  |  | 4.95 | > 10 | < 1 | > 10 | 1 to 10 | > 10 | > 10
5 | O=C(Cn1ccc2ccc(C(=O)NO)cc21)Nc1ccccc1 [Compound 329, N-hydroxy-1-(2-oxo-2-(phenylamino)ethyl)-1H-indole-6-carboxamide] |  |  | 20.7 | > 10 | < 1 | > 10 | > 10 | > 10 | > 10
